Data published in patent US8598170B2, “Dual-acting oxazole antihypertensive agents” (Theravance, Inc., priority 2009, dated 2013).

Assays:
[1] = target: T1, NEP enzyme (Homo sapiens, UniProt P08473); assay: In vitro NEP enzyme inhibition assay (fluorogenic peptide substrate); assay type: biochemical; conditions: read-out: pIC50 for the NEP enzyme (converted)
T1 construct: purchased R&D Systems, Minneapolis, Minn; 1182-ZN
Experimental: The inhibitory activities of compounds at human and rat NEP and human ACE were determined using in vitro assays as described below.
Rat NEP was prepared from the kidneys of adult Sprague Dawley rats. Whole kidneys were washed in cold PBS and brought up in ice-cold lysis buffer (1% Triton X-114, 150 mM NaCl, 50 mM Tris pH 7.5; Bordier (1981) J. Biol. Chem. 256:1604-1607) in a ratio of 5 mL of buffer for every gram of kidney. Samples were homogenized using a polytron hand held tissue grinder on ice. Homogenates were centrifuged at 1000×g in a swinging bucket rotor for 5 minutes at 3° C. The pellet was resuspended in 20 mL of ice cold lysis buffer and incubated on ice for 30 minutes. […] Protein concentrations were quantitated using a BCA detection system with BSA as a standard. […]
The assays were performed in 384-well white opaque plates at room temperature using the respective fluorogenic peptides at a concentration of 10 μM in assay buffer (50 mM Tris/HCl at 25° C., 100 mM NaCl, 0.01% Tween-20, 1 μM Zn, 0.025% BSA). […] The rat NEP enzyme preparation was used at a concentration that yielded quantitative proteolysis of 3 μM of Mca-RRL within 20 minutes at room temperature. […]
Plates were read on a fluorometer with excitation and emission wavelengths set to 320 nm and 405 nm, respectively. […]

[2] = target: T2, human AT1 receptor (Homo sapiens, UniProt P30556); assay: AT1 radioligand binding assay ([Eu]AngII displacement, CHO-K1 membranes); conditions: read-out: pKi at the AT1 receptor (converted)
T2 construct: expressed in transfected cells; host or cells: CHO-K1
T2 sequence (P30556 1-359): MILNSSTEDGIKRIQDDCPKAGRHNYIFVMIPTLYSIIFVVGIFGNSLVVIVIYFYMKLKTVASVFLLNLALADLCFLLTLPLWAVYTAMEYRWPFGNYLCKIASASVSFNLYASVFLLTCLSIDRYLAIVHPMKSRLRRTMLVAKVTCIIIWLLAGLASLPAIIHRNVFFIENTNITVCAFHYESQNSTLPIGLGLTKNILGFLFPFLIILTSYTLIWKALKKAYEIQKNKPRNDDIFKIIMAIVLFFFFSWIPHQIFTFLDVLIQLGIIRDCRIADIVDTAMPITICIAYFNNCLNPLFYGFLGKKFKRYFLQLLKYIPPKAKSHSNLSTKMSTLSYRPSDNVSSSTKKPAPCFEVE
Experimental: These in vitro assays were used to assess the ability of test compounds to bind to the AT1 and the AT2 receptors.
Chinese hamster ovary (CHO-K1) derived cell lines stably expressing the cloned human AT1 or AT2 receptors, respectively, were grown in HAM's-F 12 medium supplemented with 10% fetal bovine serum, 10 μg/ml penicillin/streptomycin, and […] in a 5% CO2 humidified incubator at 37° C. AT2 receptor expressing cells were grown in the additional presence of 100 nM PD123,319 (AT2 antagonist). When cultures reached 80-95% confluence, the cells were washed thoroughly in PBS and lifted with 5 mM EDTA. Cells were pelleted by centrifugation and snap frozen in MeOH-dry ice and stored at −80° C. until further use.
For membrane preparation, cell pellets were resuspended in lysis buffer (25 mM Tris/HCl pH 7.5 at 4° C., 1 mM EDTA, and one tablet of Complete Protease Inhibitor Cocktail Tablets with 2 mM EDTA per 50 mL buffer (Roche cat. #1697498, Roche Molecular Biochemicals, Indianapolis, Ind.)) and homogenized using a tight-fitting Dounce glass homogenizer (10 strokes) on ice. The homogenate was centrifuged at 1000×g, the supernatant was collected and centrifuged at 20,000×g. […] Protein concentration of the membrane suspension was determined by the method described in Bradford (1976) Anal Biochem. 72:248-54. […]

T1 sequence (P08473 52-750 limits assumed): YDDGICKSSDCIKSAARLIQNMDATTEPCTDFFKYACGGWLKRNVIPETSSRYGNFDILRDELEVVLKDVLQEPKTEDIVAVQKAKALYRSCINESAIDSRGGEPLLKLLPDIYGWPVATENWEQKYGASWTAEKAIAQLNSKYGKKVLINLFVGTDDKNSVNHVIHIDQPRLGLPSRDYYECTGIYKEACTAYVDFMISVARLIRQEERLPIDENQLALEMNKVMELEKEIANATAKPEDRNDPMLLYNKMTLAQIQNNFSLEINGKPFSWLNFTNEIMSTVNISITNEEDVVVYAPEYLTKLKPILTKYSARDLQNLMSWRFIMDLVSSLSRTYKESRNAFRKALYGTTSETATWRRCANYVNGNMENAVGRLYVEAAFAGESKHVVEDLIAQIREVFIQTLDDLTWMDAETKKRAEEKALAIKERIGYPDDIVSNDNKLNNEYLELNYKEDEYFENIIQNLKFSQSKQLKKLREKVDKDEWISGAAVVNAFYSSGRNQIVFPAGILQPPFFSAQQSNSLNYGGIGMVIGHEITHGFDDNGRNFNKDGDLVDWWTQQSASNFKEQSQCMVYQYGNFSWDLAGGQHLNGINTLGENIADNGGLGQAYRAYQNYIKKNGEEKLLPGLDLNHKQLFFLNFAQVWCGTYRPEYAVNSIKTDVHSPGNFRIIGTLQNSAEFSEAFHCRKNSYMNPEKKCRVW

CCCc1oc(C(=O)N[C@H](Cc2ccccc2)[C@@H](O)C(=O)O)nc1Cc1ccc(-c2ccccc2-c2nnn[nH]2)cc1 [Example 1, (2R,3R)-2-Hydroxy-4-phenyl-3-({5-propyl-4-[2′-(1H-tetrazol-5-yl)-biphenyl-4-ylmethyl]-oxazole-2-carbonyl}amino)butyric Acid]
IC50 [1]: < 1 µM | Ki [2]: < 0.0316 µM
